In brackets after ≈: the same amount, converted by molar mass. Read-outs that look alike come from different tables or passages of the source. Values belong to the compound of their own block, whether it stands above or below them.
Key:
Type in all cases: physicochemical
[1] = HPLC chemical stability after storage at various conditions; settings: for Area Percent at 248 nm T1 week: 1 week; for Area Percent at 248 nm T2 week: 2 weeks; for Area Percent at 248 nm T4 week: 4 weeks; for Area Percent at 248 nm T8 week: 8 weeks; for change in HPLC area percent purity (LCAP): selected storage conditions, time points over eight-week study
Method: High-performance Liquid Chromatography (HPLC) analysis was performed to determine the chemical stability of Forms A, B, and C of Compound A after storage at various conditions, using an Agilent 1100 system with DAD. Chemical stability was estimated by measuring and comparing the area percent of the material peak at various time points. For High-performance Liquid Chromatography (HPLC) analysis, an Agilent 1100 system with DAD was used.

[2] = XRPD physical form stability under storage conditions; settings: up to eight weeks
Method: XRPD analysis is carried out using a diffractometer running in reflection mode. The 2-theta position is calibrated against a standard before running the experiment. XRPD analysis was carried out on a Panalytical X'Pert^3 Powder XRPD on a Si zero-background holder, scanning the samples between 3 and 40° 2-theta. The 2-theta position was calibrated against Panalytical 640 Si powder standard. The test material was gently compressed on a glass disc inserted into a sample holder. The sample was then loaded into a Panalytical X'Pert^3 Powder XRPD diffractometer running in reflection mode and analyzed, using the following experimental conditions.

[3] = Dynamic Vapor Sorption (DVS); settings: for XRPD pattern after exposure to DVS experiment: 25° C. and RH up to 95%; for water uptake: between 0 and 80% RH at between 25° C. and 45° C.
Method: Dynamic Vapor Sorption (DVS) was measured using a SMS (Surface Measurement Systems) DVS Intrinsic. The test was performed at 25° C. while the RH was varied from 0% to 95% at 10% increments in the range of 0% RH-90% RH and at 5% increment up to 95% RH. The change in mass after each increase or decrease in the RH was recorded as a percentage of the original mass of the starting material. Dynamic Vapor Sorption (DVS) was measured using a SMS (Surface Measurement Systems) DVS Intrinsic, using the following parameters: [table]

Solubility estimation = experiment: Solubility estimation
Method: Solubility of the solid forms of the present application in a variety of solvents is measured. Solvent is added to a sample until the total volume reaches 100 μL, followed by 100 μL per step until the sample is dissolved or the concentration is less than <1.0 mg/mL. The approximate solubility is then calculated.
Solubility of the solid forms of the present application in a variety of solvents was measured according to the following procedures. A sample (˜2 mg) was weighed into a 4-mL glass vial. Solvent was added into the vial stepwise at 50 μL per step until the total volume was 100 μL, followed by 100 μL per step until concentration was less than 1.0 mg/mL. The solutions were mixed thoroughly after each addition by sonication for 2 minutes and vortexing for 1 minute. The addition of solvent was complete if the sample was dissolved or the concentration was <1.0 mg/mL. The volumes of solvent (V1 and V2) were recorded, and approximate solubility was calculated.

Area Percent at 248 nm T1 week ([1]; 25° C./60% RH): 99.8 Area Percent | Area Percent at 248 nm T2 week ([1]; 25° C./60% RH): 99.7 Area Percent | Area Percent at 248 nm T4 week ([1]; 25° C./60% RH): 99.8 Area Percent | Area Percent at 248 nm T8 week ([1]; 25° C./60% RH): 99.8 Area Percent | Area Percent at 248 nm T0 ([1]; 25° C./60% RH): 99.8 Area Percent | Area Percent at 248 nm T1 week ([1]; 40° C./75% RH): 99.8 Area Percent | Area Percent at 248 nm T2 week ([1]; 40° C./75% RH): 99.8 Area Percent | Area Percent at 248 nm T4 week ([1]; 40° C./75% RH): 99.7 Area Percent | Area Percent at 248 nm T8 week ([1]; 40° C./75% RH): 99.8 Area Percent | Area Percent at 248 nm T0 ([1]; 40° C./75% RH): 99.8 Area Percent | Area Percent at 248 nm T1 week ([1]; 55° C./75% RH): 99.8 Area Percent | Area Percent at 248 nm T2 week ([1]; 55° C./75% RH): 99.7 Area Percent | Area Percent at 248 nm T4 week ([1]; 55° C./75% RH): 99.7 Area Percent | Area Percent at 248 nm T8 week ([1]; 55° C./75% RH): 99.7 Area Percent | Area Percent at 248 nm T0 ([1]; 55° C./75% RH): 99.8 Area Percent | Area Percent at 248 nm T1 week ([1]; Ambient): 99.8 Area Percent | Area Percent at 248 nm T2 week ([1]; Ambient): 99.7 Area Percent | Area Percent at 248 nm T4 week ([1]; Ambient): 99.8 Area Percent | Area Percent at 248 nm T8 week ([1]; Ambient): 99.8 Area Percent | Area Percent at 248 nm T0 ([1]; Ambient): 99.8 Area Percent | change in HPLC area percent purity (LCAP) [1]: no significant decrease | change in physical form (XRPD) ([2]; 25° C./60% RH): no change in physical form | change in physical form (XRPD) ([2]; 40° C./75% RH): no change in physical form | change in physical form (XRPD) ([2]; 55° C./75% RH): no change in physical form | change in physical form (XRPD) ([2]; ambient conditions): no change in physical form | hygroscopicity [3]: non-hygroscopic | XRPD pattern after exposure to DVS experiment [3]: does not change | water uptake [3]: less than 0.2 % w/w | thermodynamic aqueous solubility (Solubility estimation; aqueous): below 1.5 mg/ml | aqueous solubility (dissolved completely) (Solubility estimation; aqueous solution (e.g., water), room temperature): > 20000 µg/mL
SMILES: O=C(Cc1ccc(-c2ccc(OCCN3CCOCC3)cc2)cn1)NCc1ccccc1 [Form B, 2-(5-(4-(2-morpholinoethoxy)phenyl)pyridin-2-yl)-N-benzylacetamide]

Area Percent at 248 nm T1 week ([1]; 25° C./60% RH): 99.9 Area Percent | Area Percent at 248 nm T2 week ([1]; 25° C./60% RH): 99.9 Area Percent | Area Percent at 248 nm T4 week ([1]; 25° C./60% RH): 99.8 Area Percent | Area Percent at 248 nm T8 week ([1]; 25° C./60% RH): 99.9 Area Percent | Area Percent at 248 nm T0 ([1]; 25° C./60% RH): 99.8 Area Percent | Area Percent at 248 nm T1 week ([1]; 40° C./75% RH): 99.8 Area Percent | Area Percent at 248 nm T2 week ([1]; 40° C./75% RH): 99.8 Area Percent | Area Percent at 248 nm T4 week ([1]; 40° C./75% RH): 99.9 Area Percent | Area Percent at 248 nm T8 week ([1]; 40° C./75% RH): 99.9 Area Percent | Area Percent at 248 nm T0 ([1]; 40° C./75% RH): 99.8 Area Percent | Area Percent at 248 nm T1 week ([1]; 55° C./75% RH): 99.9 Area Percent | Area Percent at 248 nm T2 week ([1]; 55° C./75% RH): 99.8 Area Percent | Area Percent at 248 nm T4 week ([1]; 55° C./75% RH): 99.8 Area Percent | Area Percent at 248 nm T8 week ([1]; 55° C./75% RH): 99.9 Area Percent | Area Percent at 248 nm T0 ([1]; 55° C./75% RH): 99.8 Area Percent | Area Percent at 248 nm T1 week ([1]; Ambient): 99.8 Area Percent | Area Percent at 248 nm T2 week ([1]; Ambient): 99.8 Area Percent | Area Percent at 248 nm T4 week ([1]; Ambient): 99.8 Area Percent | Area Percent at 248 nm T8 week ([1]; Ambient): 99.9 Area Percent | Area Percent at 248 nm T0 ([1]; Ambient): 99.8 Area Percent | change in HPLC area percent purity (LCAP) [1]: no significant decrease | change in physical form (XRPD) ([2]; 25° C./60% RH): no change in physical form | change in physical form (XRPD) ([2]; 40° C./75% RH): no change in physical form | change in physical form (XRPD) ([2]; 55° C./75% RH): no change in physical form | change in physical form (XRPD) ([2]; ambient conditions): no change in physical form | hygroscopicity [3]: non-hygroscopic | XRPD pattern after exposure to DVS experiment [3]: does not change | water uptake [3]: less than 0.2 % w/w | solubility (Solubility estimation; 1,4-Dioxane, organic solvent or mixture, thermodynamic from solid, 1,4-Dioxane, read-out: Solubility): 12600 to 25100 µg/mL (≈ 29.2 to 58.2 mM) | solubility (Solubility estimation; 2-MeTHF, organic solvent or mixture, thermodynamic from solid, 2-MeTHF, read-out: Solubility): 5100 to 6380 µg/mL (≈ 11.8 to 14.8 mM) | solubility (Solubility estimation; ACN, organic solvent or mixture, thermodynamic from solid, ACN, read-out: Solubility): 4430 to 5540 µg/mL (≈ 10.3 to 12.8 mM) | solubility (Solubility estimation; Acetone, organic solvent or mixture, thermodynamic from solid, Acetone, read-out: Solubility): 5690 to 8590 µg/mL (≈ 13.2 to 19.9 mM) | solubility (Solubility estimation; CHCl3, organic solvent or mixture, thermodynamic from solid, CHCl3, read-out: Solubility): 25900 to 51800 µg/mL (≈ 60 to 120 mM) | solubility (Solubility estimation; DCM, organic solvent or mixture, thermodynamic from solid, DCM, read-out: Solubility): 1330 to 1440 µg/mL (≈ 3.08 to 3.34 mM) | solubility (Solubility estimation; EtOAc, organic solvent or mixture, thermodynamic from solid, EtOAc, read-out: Solubility): 2370 to 2630 µg/mL (≈ 5.49 to 6.09 mM) | solubility (Solubility estimation; EtOH, organic solvent or mixture, thermodynamic from solid, EtOH, read-out: Solubility): 5140 to 6420 µg/mL (≈ 11.9 to 14.9 mM) | solubility (Solubility estimation; H2O, water, thermodynamic from solid, H2O, read-out: Solubility): < 1000 µg/mL | solubility (Solubility estimation; IPA, organic solvent or mixture, thermodynamic from solid, IPA, read-out: Solubility): 1300 to 1390 µg/mL (≈ 3.01 to 3.22 mM) | solubility (Solubility estimation; IPAc, organic solvent or mixture, thermodynamic from solid, IPAc, read-out: Solubility): 1080 to 1150 µg/mL (≈ 2.5 to 2.66 mM) | solubility (Solubility estimation; MIBK, organic solvent or mixture, thermodynamic from solid, MIBK, read-out: Solubility): 1610 to 1760 µg/mL (≈ 3.73 to 4.08 mM) | solubility (Solubility estimation; MTBE, heated to 50° C.): soluble | solubility (Solubility estimation; MTBE, organic solvent or mixture, thermodynamic from solid, MTBE, read-out: Solubility): < 1000 µg/mL | solubility (Solubility estimation; MTBE, room temperature): insoluble | solubility (Solubility estimation; MeOH, organic solvent or mixture, thermodynamic from solid, MeOH, read-out: Solubility): 9580 to 19200 µg/mL (≈ 22.2 to 44.4 mM) | solubility (Solubility estimation; THF, organic solvent or mixture, thermodynamic from solid, THF, read-out: Solubility): 11000 to 22000 µg/mL (≈ 25.5 to 51 mM) | solubility (Solubility estimation; n-Heptane, organic solvent or mixture, thermodynamic from solid, n-Heptane, read-out: Solubility): < 1000 µg/mL | solubility (Solubility estimation; n-heptane, organic solvent or mixture, thermodynamic from solid, n-heptane, room temperature and when heated to 50° C., read-out: Solubility): < 1000 µg/mL | solubility (Solubility estimation; organic solvent or mixture, thermodynamic from solid, methanol, ethanol, isopropanol, acetone, MIBK, ethyl acetate, isopropyl acetate, tetrahydrofuran, 2-Me-THF, 1,4-dioxane, acetonitrile, dichloromethane, chloroform, toluene, room temperature and 50° C., read-out: Solubility): > 1000 µg/mL | solubility (Solubility estimation; toluene, organic solvent or mixture, thermodynamic from solid, toluene, read-out: Solubility): 1510 to 1610 µg/mL (≈ 3.5 to 3.73 mM) | solubility (Solubility estimation; water, thermodynamic from solid, aqueous solution (water), room temperature and when heated to 50° C., read-out: Solubility): < 1000 µg/mL
SMILES: O=C(Cc1ccc(-c2ccc(OCCN3CCOCC3)cc2)cn1)NCc1ccccc1 [Form C, 2-(5-(4-(2-morpholinoethoxy)phenyl)pyridin-2-yl)-N-benzylacetamide]

— patent US11230527B2, “Solid forms of 2-(5-(4-(2-morpholinoethoxy)phenyl)pyridin-2-yl)-n- benzylacetamide” (Athenex HK Innovative Limited, priority 2017, dated 2022)
